Measured values published in patent publication USRE46943E1, “Radioprotector compounds and methods” (PETER MACCALLUM CANCER INSTITUTE, priority 2010, dated 2018).

Experiments:
[1] = test system: transformed human keratinocyte cell line (FEP 1811); assay: Clonogenic survival cell culture assay for radioprotective activity (12 Gy 137Cs gamma irradiation); type: cell-based; details: 12 Gy; for DMF10 (dose modification factor at a concentration of 10 microM of radioprotector): 10 microM radioprotector; for DMFm (dose modification factor at maximum protection): DMF=Dp/Dc at survival level Sm; for PF (protection factor = Sm/So): survival at maximum protection vs irradiation only
Summary of the method: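 Survival after irradiation gave protection factor PF = Sm/So (maximum-protection survival over irradiation-only survival). DMF = Dp/Dc is the ratio of doses giving survival Sm with and without radioprotector. DMF10 uses survival at 10 microM radioprotector in place of Sm.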

[2] = test system: transformed human keratinocyte cell line (FEP 1811); assay: Clonogenic survival cell culture assay for cytotoxicity; type: cell-based; details: Homo sapiens, Keratinocyte, light or radiation study; un-irradiated keratinocytes, one hour drug exposure, colonies counted after eight days; read-out: C50 (concentration of radioprotector that results in 50% clonogenic survival)
Summary of the method: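 Mid-log monolayers exposed to test drug for 1 h, then pronase-dispersed and plated; colonies counted after 8 days. For […], irradiation at 0.6 Gy per minute began 30 min after drug addition, with total drug exposure held at 60 min before plating for clonogenic survival.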

mice = assay: Radioprotection of mouse jejunum, subcutaneous administration: local reaction at injection site; type: in vivo; details: subcutaneous solutions in polyethylene glycol (MW 400), similar experiments with the jejunum model
Method: 2-Hydroxypropyl-β-cyclodextrin (HPCD, Sigma-Aldrich, typical MW 1540) vehicle solution was prepared by dissolving 3.6 g of HPCD in 9.3 mL of phosphate buffered saline (PBS) resulting in 30% v/w solution. […] The concentration of M2PB was measured following appropriate dilution in 45% MeOH 0.1% TFA using an extinction coefficient […] at 345 nm. The M2PB/HPCD stock was diluted to 8.75 mg/mL (22 mM) in HPCD vehicle to produce the final M2PB/HPCD formulation, which was injected subcutaneously into mice, between the shoulder blades (scruff of the neck) at a volume of 8×10^−3 ml/g body weight.
The subsequent irradiation and analysis was as described for Example 56.

Row | melting point | SMILES | DMF10 (dose modification factor at a concentration of 10 microM of radioprotector) [1] | DMFm (dose modification factor at maximum protection) [1] | PF (protection factor = Sm/So) [1] | IC50 [2] [µM] | local reaction or toxicity at the site of subcutaneous injection (mice)
1 | 180 °C (dec.) | CN(C)c1ccc2nc(-c3ccc4nc(-c5ccccn5)[nH]c4c3)[nH]c2c1 [Example 28, 2-(5′-(5″-(Dimethylamino)benzimidazol-2″-yl)benzimidazol-2′-yl)pyridine] | 1.30 | 1.57 | 13.5 | 60.8 | 
2 | 198 to 205 °C | CN(C)C1CCN(c2ccc3nc(-c4ccc5nc(-c6ccccn6)[nH]c5c4)[nH]c3c2)CC1 [Example 29, 2-(5′-(5″-(4′″-(Dimethylamino)piperidin-1′″-yl)benzimidazol-2″-yl)benzimidazol-2′-yl)pyridine] | 1.54 | 1.76 | 18.2 | 46.9 | 
3 | 200 °C (dec.) | COc1cc(-c2nc3cc(N4CCN(C)CC4)ccc3[nH]2)cc2nc(-c3ccccn3)[nH]c12 [Example 30, 2-(4′-Methoxy-6′-(5″-(4′″-methylpiperazin-1′″-yl)benzimidazol-2″-yl)benzimidazol-2′-yl)pyridine] | 1.78 | 1.97 | 13.3 | 158 | 
4 | 245 to 247 °C | CN1CCN(c2ccc3nc(-c4ccc5cc(-c6ccccn6)[nH]c5c4)[nH]c3c2)CC1 [Example 31, 2-(6′-(5″-(4′″-Methylpiperazin-1′″-yl)benzimidazol-2″-yl)indol-2′-yl)pyridine] | 2.09 | 2.20 | 22.8 | 19.8 | 
5 | 190 to 195 °C | COc1cc2nc(-c3ccccn3)[nH]c2cc1-c1nc2ccc(N3CCN(C)CC3)cc2[nH]1 [Example 32, 2-(5′-methoxy-6′-(5″-(4′″-methylpiperazin-1′″-yl)benzimidazol-2″-yl)benzimidazol-2′-yl)pyridine] | 1.32 | 1.56 | 23.6 | 112 | 
6 | 203 to 208 °C | CN1CCN(c2ccc3nc(-c4ccc5nc(-c6cc(C(F)(F)F)ccn6)[nH]c5c4)[nH]c3c2)CC1 [Example 48, 2-(5′-(5″-(4′″-methylpiperazin-1′″-yl)benzimidazol-2″-yl)benzimidazol-2′-yl)-4-(trifluoromethyl)pyridine] | 2.58 | 2.75 | 63.8 | 23.3 | 
7 | 320 °C (dec.) | CN1CCN(c2ccc3nc(-c4ccc5nc(-c6ccc(C(F)(F)F)cn6)[nH]c5c4)[nH]c3c2)CC1 [Example 49, 2-(5′-(5″-(4′″-methylpiperazin-1′″-yl)benzimidazol-2″-yl)benzimidazol-2′-yl)-5-(trifluoromethyl)pyridine] | 2.21 | 2.38 | 33.1 | 12.2 | 
8 | 204 to 209 °C | Cc1ccnc(-c2nc3ccc(-c4nc5ccc(N6CCC(O)CC6)cc5[nH]4)cc3[nH]2)c1 [Example 50, 2-(5′-(5″-(4′″-hydroxypiperidin-1′″-yl)benzimidazol-2″-yl)benzimidazol-2′-yl)-4-methylpyridine] | 1.33 | 1.79 | 23.5 | 134 | 
9 | 208 to 213 °C | Cc1ccc(-c2nc3ccc(-c4nc5ccc(N6CCC(O)CC6)cc5[nH]4)cc3[nH]2)nc1 [Example 51, 2-(5′-(5″-(4′″-hydroxypiperidin-1′″-yl)benzimidazol-2″-yl)benzimidazol-2′-yl)-5-methylpyridine] | 1.90 | 2.07 | 58.7 | 124 | 
10 |  | Cc1cc(N(C)C)ccc1-c1nc2ccc(-c3nc4ccc(N5CCN(C)CC5)cc4[nH]3)cc2[nH]1 [methylproamine, reference compound] |  |  |  |  | had been observed

Row | SMILES | melting point | DMF10 (dose modification factor at a concentration of 10 microM of radioprotector) [1] | DMFm (dose modification factor at maximum protection) [1] | PF (protection factor = Sm/So) [1] | IC50 [2] [µM] | local reaction or toxicity at the site of subcutaneous injection (mice)
11 | COCCN(C)c1ccc2[nH]c(-c3ccc4[nH]c(-c5ccccn5)nc4c3)nc2c1 [Example 38, 2-(5′-(5″-((2′″-Methoxyethyl)(methyl)amino)benzimidazol-2″-yl)benzimidazol-2′-yl)pyridine] | 150 to 155 °C | 1.32 | 1.55 | 8.8 | 41.2 | 
12 | COCCOCCNc1ccc2nc(-c3ccc4nc(-c5ccccn5)[nH]c4c3)[nH]c2c1 [Example 39, 2-(5′-(5″-(2′″-(2″″-methoxyethoxy)ethylamino)benzimidazol-2″-yl)benzimidazol-2′-yl)pyridine] | 183 to 186 °C | 1.50 | 2.70 | 171.5 | 173 | 
13 | OCCN1CCN(c2ccc3nc(-c4ccc5nc(-c6ccccn6)[nH]c5c4)[nH]c3c2)CC1 [Example 41, 2-(5′-(5″-(4′″-(2″″-hydroxyethyl)piperazin-1′″-yl)benzimidazol-2″-yl)benzimidazol-2′-yl)pyridine] | 218 to 221 °C | 1.44 | 1.95 | 19.6 | 90.6 | 
14 | c1ccc(-c2nc3ccc(-c4nc5ccc(NN6CCOCC6)cc5[nH]4)cc3[nH]2)nc1 [Example 42, 2-(5′-(5″-(morpholinoamino)benzimidazol-2″-yl)benzimidazol-2′-yl)pyridine] | 198 to 205 °C | 1.38 | 1.86 | 17.8 | 206 | 
